The results in this text go back to US10561638B2, “Methods for treating dependence” (Biotie Therapies, Inc., priority 2007, dated 2020).

In series [1] the test system is tissue noradrenaline and dopamine content. Nature of the series: Tissue catecholamines in SHRs after three oral doses 12 h apart. The following applies: for increase in DA/NE ratio: 30 mg/kg; for dopamine vs vehicle / dopamine/norepinephrine ratio vs vehicle / norepinephrine vs vehicle: 30 mg/kg x3. It counts as in vivo, spontaneously hypertensive rats. On the procedure:
Male SHRs (15-16 weeks old, Charles River, Wilmington, Mass., USA) were used in in vivo studies. On the day of the study, animals were weighed and randomly assigned to be dosed with either vehicle (control) or the appropriate dose of nepicastat (3, 10, 30 or 100 mg·kg^−1, po) or Compound B (30 mg·kg^−1, po) three consecutive times, twelve hours apart. At six hours after the third dose, the rats were anaesthetized with halothane, decapitated and tissues (cerebral cortex, mesenteric artery and left ventricle) were rapidly harvested, weighed, placed in iced perchloric acid (0.4 M), frozen in liquid nitrogen and stored at −70° C. until subsequent analysis. To quantify noradrenaline and dopamine concentrations, tissues were homogenized by brief sonication and centrifuged at 13,000 rpm for 30 minutes at 4° C. The supernatant, spiked with 3,4-dihydroxybenzylamine (internal standard), was assayed for noradrenaline and dopamine by HPLC using electrochemical detection.
Nepicastat was used in in vivo biochemical studies to study the effects in spontaneously hypertensive rats (SHRs) and normal beagle dogs. On the day of the study, the animals were weighed and randomly assigned to receive either placebo (vehicle) or the appropriate dose of nepicastat. Each rat was dosed orally three times, 12 h apart, beginning in the morning. At 6 h after the third dose, the rats were anesthetized with halothane, decapitated, and the tissues (cerebral cortex, mesenteric artery and left ventricle) were rapidly harvested, weighed, placed in iced 0.4 M perchloric acid, frozen in liquid nitrogen and stored at −70° C. until analysis. Tissue NE and DA concentrations were assayed by HPLC using electrochemical detection. Male beagle dogs (10-16 kg, Marshall Farms USA Inc, North Rose, N.Y.) were used in the study. On the day of the study, dogs were randomly assigned to receive either placebo (empty capsule) or the appropriate dose of nepicastat. Each dog was dosed twice a day for 4.5 days. 6 h after the first dose on day 5, the dogs were euthanized with pentobarbital and the tissues (cerebral cortex. renal artery, left ventricle) harvested, weighed, placed in iced 0.4 M perchloric acid, frozen in liquid nitrogen and stored at −70° C. until analysis. Tissue NE and DA concentrations were assayed by HPLC using electrochemical detection.
Fifteen to sixteen week old male spontaneously hypertensive rats (SHRs) (Charles River Labs) were allowed food and water ad libitum. Animals were weighed and randomly assigned to one of the following treatment groups: 1) distilled water vehicle (dH2O), or nepicastat at 3, 10, 30, and 100 mg/kg, 2) Compound B at 30 mg/kg in distilled water, or 3) PEG 400:dH2O vehicle or SKF-102698 at 30 mg/kg. Each rat was dosed orally (p.o., using a gavage needle) three times 12 hours apart, beginning in the morning. At six hours after the third dose rats were anesthetized with halothane, decapitated, and the cortex, mesenteric artery, and left ventricle were rapidly harvested, weighed, placed in iced 0.4 M perchioric acid, frozen in liquid nitrogen, and stored at −70° C. Tissue dopamine and norepinephrine concentrations were assayed by high performance liquid chromatography and electrochemical detection.
Four series of statistical analyses were performed. The first series compared the rats treated with various doses of nepicastat, and Compound B at 30 mg/kg to the vehicle control animals. A nonparametric one-way analysis of variance (ANOVA) with factor Dose and blocking factor Day was performed for each tissue and strain separately. […] Pairwise analysis between treated and controls at each dose were carried out using Dunnett's test to control the experiment-wise error rate. The second statistical test compared SKF-102698 to the PEG-dH2O vehicle treated group using a nonparametric t-test. The third statistical test compared Compound B to nepicastat at doses of 30 mg/kg using a nonparametric t-test.

In series [2] the test system is short-term or working memory in rats. Nature of the series: Delayed-matching-to-position (DMTP) test. It counts as in vivo, Sprague Dawley rats. The method, then:
In the present DMTP study, rats were trained to remember the position of a lever across a scheduled delay of either 0, 8, 16 or 32 s in order to earn food reward. […] Another group of rats received only vehicle treatment throughout the experiment. […] The dependent measures in the present study included percentage of correct choices, the latency to make choice responses and the number of trials which the animals were able to complete during the 70 min test sessions. Changes in the former measure may indicate changes in memory and/or attentional function whereas changes in the latter two measures may be indicative of other non-cognitive effects of the drugs. Matching to position training began next. This and all subsequent training was conducted with the partitions fitted into the operant boxes. The sessions were initially 50 minutes long. Rats were placed in the operant box and the session began when the houselight was illuminated. Following a 30 s intertrial interval (ITI), one of the two levers (the sample lever) was inserted into the chamber. The lever remained inserted into the chamber until a lever-press response occurred. […] As soon as the magazine flap was pressed the magazine light was extinguished and both levers were inserted. […] The magazine light remained on until the flap was pressed. […] A 30 s ITI was initiated before the commencement of a new trial. The lever inserted as the sample lever was semi-randomly determined such that the right and lefthand levers were presented as the sample lever 8 times in a block of 16 trials. Following 24 sessions, the animals were performing the matching to position task with a high degree of accuracy. On Session 25 a variable delay interval was interposed between the depression of the sample lever and presentation of the levers on the choice trial. After a response to the sample lever, the choice levers were inserted following the first flap press occurring after either a 0 s (immediate), 4, 8 or 16 s delay. The order of the four types of trials (0, 4, 8 or 16 s delay) was semi-randomly determined with the constraint that in a 16 trial block, each delay occurred 4 times; twice on a left trial and twice on a right trial. […] The same trial was reinstated following the end of the ITI. From Session 25 onward the time-out period following incorrect choices was omitted and the session length was increased to 70 minutes. […] Due to poor performance at the 64 s delay, however, this delay was not used in any further sessions. On Session 59, delays of 0, 8, 16 and 32 s were used. These delays were used in all subsequent sessions. Only 51 of the 56 rats completed more than 24 trials (correction plus non-correction) during Session 59. These rats were selected and semi-randomly assigned to the following 7 groups such that the groups were matched on performance (percent correct, response latency and number of trials completed): […] Thus, the drug treatments administered to the seven groups during the 11 consecutive days of the present experiment were: The data collected and analyzed in the present DMTP study include 1) the percentage of correct responses; 2) the latency between performance of a response to the sample lever and the performance of the choice response and 3) the total number of correction and non-correction trials completed. The former two dependent measures were collected for the non-correction trials only. […] Two-way analysis of variance (ANOVA) with drug treatment as the between-subjects factor and delay (0, 8, 16 or 32 s) as the within-subjects factor was used to analyze percentage of correct choices and response latency. These analyses were conducted separately for each block of data. Significant interactions were followed by a one-way ANOVA which was conducted at each delay. A significant main effect from a one-way ANOVA was followed by a two-tailed Dunnett's t-test. One-way ANOVA followed by a post hoc Dunnett's test, when appropriate, was used to analyze the mean number of trials completed. […]

In the next series the test system is SHRs. In words: 30-day radio-telemetry study in SHRs.
A further series deals with rats. Nature of the series: Chronic (10 day) dosing behavioral tests in rats. On the procedure: The effects of chronic dosing of nepicastat in rats were examined. Between three and thirteen days prior to the first dosing day the rats were placed inside the startle apparatus and after a five minute acclimation period they were presented with a 118 dB noise burst on average once a minute (a variable inter-trial interval ranging between 30 and 90 seconds will be used) for 20 minutes. The startle responses were measured and a mean for the last twenty startle response was calculated for each rat.
The following behavioral tests were administered during and after chronic dosing; body core temperature, motor activity, acoustic startle reactivity, and pre-pulse inhibition of acoustic startle.
The animals were tested in an enclosed room with a white noise generator running Motor activity tests were conducted immediately after the body core temperature reading taken on dosing day ten (about 3 hours and 35 minutes after the morning daily dose of nepicastat, and SKF-102698, and 20 minutes prior to the daily administration of clonidine and d-amphetamine on dosing day ten). Motor activity tests were run for one hour. A diagnostic program was run on each of the motor activity chambers prior to each test session to assure that the photo beams and light sensors were operating properly. […] D-amphetamine was used as the positive control for this assay.
Rat body core temperatures were obtained by inserting the rectal probe 2 cm into the colon of each rat. Each rat's body core temperature was measured three times and the average of the three reading was calculated. Body core temperature readings were obtained immediately prior to the ten day chronic dosing schedule (to obtain a baseline), and three and half hour after the morning daily dose of nepicastat, and SKF-102698, and 15 minutes prior to the daily administration of clonidine and d-amphetamine, on dosing days one, five and ten. […] Both clonidine (an alpha2 agonist), and d-amphetamine (a dopamine releaser) were used as the positive controls for this assay.
Acoustic startle reactivity (a series of muscle contractions elicited by an intense burst of noise with a rapid onset), and pre-pulse inhibition (sensorimotor gating measured by analyzing any decrease in startle reactivity which occurs when a startling stimulus is immediately preceded by a non startling stimulus) were both measured in eight SR-Lab (San Diego Instruments, San Diego, Calif.) test stations. The rats were placed individually in a Plexiglas cylinder (10 cm diameter) which was housed in a ventilated sound-attenuating enclosure. Acoustic noise bursts (a broad band noise with a rise time and fall time of 1 msec) were presented via a speaker mounted 30 cm above the animal. Also, these speakers produced a 68 dB level of background noise throughout all test sessions. A piezoelectric accelerometer attached below the plexiglass cylinder transduced the subject's movement into a voltage which was then rectified and digitized (on a scale from 0 to 4095) by a PC computer equipped with SR-Lab software and interface assembly. A decibel meter was used to calibrate the speakers in each of the eight test station to ±1% of the mean. Additionally, a SR-Lab calibrating instrument was used to calibrate each of the eight startle detection apparatuses to ±2% of the mean. Startle reactivity and pre-pulse inhibition tests were run concurrently immediately alter the motor activity test (about 4 hours and 40 minutes after the morning daily injection of nepicastat, and SKF-102698, and 10 minutes after a supplemental administration of clonidine and d-amphetamine on dosing day ten).

Entries after “also recorded” stand apart in the source; their conditions may differ.

With `NCc1c[nH]c(=S)n1[C@@H]1CCc2c(F)cc(F)cc2C1` [Compound B, (R)-5-Aminomethyl-1-(5,7-difluoro-1,2,3,4-tetrahydronaphth-2-yl)-2,3-dihydro-2-thioxo-1H-imidazole], in series [1] (cerebral cortex), the “increase in DA/NE ratio” value was determined as 1.1 fold, the dopamine vs vehicle result was “significant increase”, the “dopamine/norepinephrine ratio vs vehicle” value is reported as “no effect” and the norepinephrine vs vehicle result was “significant increase”. Further, in series [1] (left ventricle), the “increase in DA/NE ratio” value was determined as 3.5 fold, the dopamine vs vehicle entry is “significant increase”, the “dopamine/norepinephrine ratio vs vehicle” value is listed as “significant increase” and the norepinephrine vs vehicle entry was “did not significantly lower”. Further, in series [1] (mesenteric artery), the “increase in DA/NE ratio” value amounted to 2.6 fold, the dopamine vs vehicle entry is recorded as “significant increase”, the “dopamine/norepinephrine ratio vs vehicle” value is recorded as “significant increase” and the norepinephrine vs vehicle result is “did not significantly lower”.
In the case of `CN1[C@@H]2C[C@@H](OC(=O)[C@H](CO)c3ccccc3)C[C@H]1[C@@H]1O[C@@H]12` [scopolamine, Scopolamine HBr, reference compound], in series [2] (all scopolamine treated groups), the “number of trials completed” value was “significantly reduced”. Further, the “percentage of correct choices vs Vehicle/Vehicle” value in series [2] (scopolamine HBr 0.1 mg/kg s.c.) was “significantly impaired percentage of correct choices”.
On to `CCOC(=O)[C@H](CCc1ccccc1)N[C@@H](C)C(=O)N1CCC[C@H]1C(=O)O` [enalapril, reference compound], for which, in the series on SHRs (enalapril 1 mg/kg), the body weights entry is “slightly decreased body weight”, the heart rate entry was “did not affect HR” and the left ventricular mass entry was “did not regress the hypertrophy”. Moreover, in the series with SHRs (enalapril 1 mg/kg or nepicastat 30 mg/kg (Series III)), the “antihypertensive effect of mono-administration” value was “failed to lower blood pressure; also recorded: only a small antihypertensive effect; also recorded: did not induce significant antihypertensive effects”. Also, in the series on SHRs (enalapril 10 mg/kg), the “antihypertensive effect throughout the study” value is −20 to −30 mmHg; the body weights entry is given as “significantly decreased (p<0.05) or had no effect”; the heart rate result was “transient small tachycardia”; the left ventricular mass entry is on record as “significantly reduced left ventricular mass in Series II, but not in Series I”. The “maximal decrease in MBP” value with SHRs (enalapril 10 mg/kg, within 1 hr after dosing on day 5) is on record as −29 mmHg.
Consider `C[C@H](N)Cc1ccccc1` [d-amphetamine], for which the “change in body weight from pre-dose” value in the series on rats (10 days) is listed as “significantly smaller change in body weight”. In addition, the pre-pulse inhibition result with rats (dosing day ten) was “Neither d-amphetamine nor SKF-102698 was significantly different”. Besides, the “locomotor activity vs vehicle” value in the series on rats (dosing day ten, nepicastat 5, 15, 50, SKF-102698 50 mg/kg bid, clonidine 20 μg/kg, d-amphetamine 2 mg/kg bid) is on record as “significantly higher locomotor activity”. For the same compound, the body core temperature result with rats (dosing days one, five, ten) is recorded as “significantly increasing body core temperature on day one”.
